In patent US4562068A, “Sebosuppressive cosmetic preparations containing aryloxobutenoic acid derivatives” (Henkel Kommanditgesellschaft auf Aktien, priority 1982, dated 1985):

System: brown cutaneous surface lipid of the rats
Test: Testing for anti-seborrheic activity: brown discoloration (brown cutaneous surface lipid) on shaved backs of male Wistar rats after topical application
Type: in vivo
Conditions: 9 applications in 14 days; for Evaluation Method 1 (percentage of evaluators recognizing an effect): topical on one side of back fur, 6 male Wistar rats
Text: The anti-seborrheic activity of aryloxobutenoic acid derivatives was examined closely in the animal experiments described hereinafter. The experimental animals were male Wistar rats weighing from 220 to 230 gm. A degree of brown discoloration on the shaved backs of the rats was established visually; the brown discoloration was caused by the brown cutaneous surface lipid of the rats. This test is based upon the observation that young female rats as well as male rats that were washed with tenside solution and a lipid solvent, respectively, as well as male rats that were treated systematically with estrogen, show only the normal light-colored pink skin after shaving; parallel to this, only relatively very small amounts of lipid can be extracted from the shorn hair.
For evaluation of anti-seborrheic activity, the test substances set forth in the table below, each in solution in ethanol, were each brushed on one side of the back fur of six rats. The other side was treated only with the solvent without the active substance (control side). During the testing period of 14 days, application of test substance was made once a day on a total of 9 days. A group of 6 rats that remained completely untreated served as an additional control. At the end of the testing, the animals were shaved on the back and the flanks and inspected visually, this inspection being done independently by an evaluation panel (6 persons) under doubleblind conditions.
Three criteria were rated. The first criterion was whether the majority of the evaluators recognized the treated side properly. The differentiations were as follows:
The second criterion was the difference between the right and left sides, one point each to be given per evaluator and animal, in the manner that the darker side was rated 1, the lighter side was rated 0, and uniformity of both sides were rated 0.5.
Significant differences between the untreated and the treated side according to the second method of evaluation indicate the topical effectiveness of a substance.
The third criterion was the rating of the difference in intensity of the brown shades according to the following scale:
According to the third method of evaluation, the differences in the point totals between the untreated control animals and the treated and untreated sides, respectively, of the experimental animal group were calculated where significant differences between control animals and the treated side of the experimental animals indicate the effect of a substance. Similarly, a distinct difference between the untreated and the treated sides of the experimental animal groups is also generally noticeable. However, this is not always as distinct as that between control animals and treated sides, which may be due to various reasons, as, for example, mechanical transfer of substance from one side to the other or solvent influence.
The differentiation of the effects according to the methods of evaluation 2 and 3 was characterized in the following manner:
In addition, the percentage of sebum reduction was calculated by dividing the point difference (ΔP) by the number of points for the control group (Pk) and multiplying by 100%, as follows: […]

[1] = Rattus norvegicus, 336 h, 0.1% in ethanol, topical, point difference (ΔP) / points of control group (Pk) x 100%, read-out: Sebum Reduction
[2] = Rattus norvegicus, 336 h, 0.5% in ethanol, topical, point difference (ΔP) / points of control group (Pk) x 100%, read-out: Sebum Reduction

Row | Compound | Evaluation Method 1 (percentage of evaluators recognizing an effect) (0.1% in ethanol) | inhibition in vivo at 0.1 % [1] [%] | also measured
1 | CCOC(=O)C=CC(=O)c1ccc(Cl)cc1 [Example 1, 4-(4'-Chloro-phenyl)-4-oxo-but-2-enoic acid ethyl ester] |  |  | Evaluation Method 1 (percentage of evaluators recognizing an effect) (0.25% in ethanol): ++ (100%); inhibition in vivo at 0.25 % (Rattus norvegicus, 336 h, 0.25% in ethanol, topical, point difference (ΔP) / points of control group (Pk) x 100%, read-out: Sebum Reduction): 84%
2 | CCOC(=O)C=CC(=O)c1ccccc1 [Example 2, 4-Phenyl-4-oxo-but-2-enoic ethyl ester] | ++ (100%) |  | 
3 | CC(C)OC(=O)C=CC(=O)c1ccccc1 [Example 3, 4-Phenyl-4-oxo-but-2-enoic isopropyl ester] | ++ (100%) | 68 | 
4 | CCCCOC(=O)C=CC(=O)c1ccccc1 [Example 4, 4-Phenyl-4-oxo-but-2-enoic acid butyl ester] | ++ (100%) | 66 | 
5 | CCOC(=O)C=CC(=O)c1ccc(OC)c(OC)c1 [Example 5, 4-(3',4'-Dimethoxy-phenyl)-4-oxo-but-2-enoic acid ethyl ester] | ++ (100%) | 65 | 
6 | CCCCOc1ccc(C(=O)C=CC(=O)OCC)cc1 [Example 6, 4-(4'-Butoxy-phenyl)-4-oxo-but-2-enoic acid ethyl ester] |  |  | Evaluation Method 1 (percentage of evaluators recognizing an effect) (0.5% in ethanol): ++ (100%); inhibition in vivo at 0.5 % [2]: 42%
7 | CCOC(=O)C=CC(=O)c1ccc(OC)c(OC)c1O [Example 8, 4-(3',4'-Dimethoxy-2'-hydroxy-phenyl)-4-oxo-but-2-enoic acid ethyl ester] |  |  | Evaluation Method 1 (percentage of evaluators recognizing an effect) (0.5% in ethanol): ++ (100%); inhibition in vivo at 0.5 % [2]: 69%
8 | CCOC(=O)C=CC(=O)c1ccc(NC(C)=O)cc1 [Example 9, 4-(4'-Acetylamino-phenyl)-4-oxo-but-2-enoic acid ethyl ester] | ++ (100%) | 84 | 
9 | CCOC(=O)C=CC(=O)c1ccc(Cl)cc1Cl [Example 10, 4-(2',4'-Dichloro-phenyl)-4-oxo-but-2-enoic acid ethyl ester] | ++ (100%) | 27 | 
